Measured values published in ChEMBL document CHEMBL1201862, “PubChem BioAssay data set” (2004).
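Protocol summary: plate cells (96-well), add compound at 5 concentrations, incubate 48 h, interpolate endpoints linearly. At the GI50, growth is halved.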 Active and inactive are the calls of the source. No stated cut-off is given here; in the data, active = GI50 up to about 1.1 µM and inactive = higher.

Assays:
Assay in all cases: NCI-60 cell line screen, 48 h
COLO 205 = tested on: COLO 205
HCT-116 = tested on: HCT-116
HOP-62 = tested on: HOP-62
IGROV-1 = tested on: IGROV-1
MCF7 = tested on: MCF7
MDA-MB-231 = tested on: MDA-MB-231
MDA-N = tested on: MDA-N
OVCAR-3 = tested on: OVCAR-3
OVCAR-8 = tested on: OVCAR-8
PC-3 = tested on: PC-3
SF-295 = tested on: SF-295
SF-539 = tested on: SF-539
SK-MEL-28 = tested on: SK-MEL-28
SNB-19 = tested on: SNB-19
SR = tested on: SR
TK-10 = tested on: TK-10
UACC-257 = tested on: UACC-257
UACC-62 = tested on: UACC-62
HOP-92 = tested on: HOP-92
SK-OV-3 = tested on: SK-OV-3

SMILES | GI50 (COLO 205) | GI50 (HCT-116) | GI50 (HOP-62) | GI50 (IGROV-1) | GI50 (MCF7) | GI50 (MDA-MB-231) | GI50 (MDA-N) | GI50 (OVCAR-3) | GI50 (OVCAR-8) | GI50 (PC-3) | GI50 (SF-295) | GI50 (SF-539) | GI50 (SK-MEL-28) | GI50 (SNB-19) | GI50 (SR) | GI50 (TK-10) | GI50 (UACC-257) | GI50 (UACC-62) | GI50 (HOP-92) | GI50 (SK-OV-3)
Cc1cc(S(=O)(=O)Nc2nnc3ccccn23)c(S)cc1Cl | > 100 µM (inactive) | > 100 µM (inactive) | 56.6 µM (inactive) | > 100 µM (inactive) | > 100 µM (inactive) | > 100 µM (inactive) | > 100 µM (inactive) | > 100 µM (inactive) | > 100 µM (inactive) | > 100 µM (inactive) | 25.9 µM (inactive) | > 100 µM (inactive) | > 100 µM (inactive) | > 100 µM (inactive) | > 100 µM (inactive) | > 100 µM (inactive) | > 100 µM (inactive) | > 100 µM (inactive) | – | –
O=C1OC(C2Cc3ccc4ccccc4c3C2=O)c2ccccc21 (configuration not stated) | > 100 µM (inactive) | 41.4 µM (inactive) | – | 39.4 µM (inactive) | 42.8 µM (inactive) | > 100 µM (inactive) | 57.5 µM (inactive) | 30.5 µM (inactive) | 35.6 µM (inactive) | 48.8 µM (inactive) | 32.4 µM (inactive) | 21.6 µM (inactive) | 55.5 µM (inactive) | 23.2 µM (inactive) | 35.2 µM (inactive) | 60 µM (inactive) | 70.8 µM (inactive) | 33.7 µM (inactive) | 49.8 µM (inactive) | –
C=CCOCn1cc(F)c(=O)[nH]c1=O | > 100 µM (inactive) | > 100 µM (inactive) | > 100 µM (inactive) | > 100 µM (inactive) | > 100 µM (inactive) | > 100 µM (inactive) | > 100 µM (inactive) | – | > 100 µM (inactive) | > 100 µM (inactive) | > 100 µM (inactive) | > 100 µM (inactive) | > 100 µM (inactive) | > 100 µM (inactive) | > 100 µM (inactive) | > 100 µM (inactive) | > 100 µM (inactive) | > 100 µM (inactive) | – | > 100 µM (inactive)
CCOC(=O)c1ccc2c(=O)n3c(C(=O)OCC)ccc3c(=O)n12 | > 100 µM (inactive) | > 100 µM (inactive) | > 100 µM (inactive) | > 100 µM (inactive) | > 100 µM (inactive) | > 100 µM (inactive) | > 100 µM (inactive) | > 100 µM (inactive) | > 100 µM (inactive) | > 100 µM (inactive) | > 100 µM (inactive) | – | > 100 µM (inactive) | > 100 µM (inactive) | > 100 µM (inactive) | > 100 µM (inactive) | > 100 µM (inactive) | > 100 µM (inactive) | – | 68.2 µM (inactive)
CCOP(=O)(C/C=C/Cn1ncc(=O)[nH]c1=O)OCC | > 100 µM (inactive) | – | > 100 µM (inactive) | > 100 µM (inactive) | > 100 µM (inactive) | > 100 µM (inactive) | > 100 µM (inactive) | > 100 µM (inactive) | > 100 µM (inactive) | > 100 µM (inactive) | – | > 100 µM (inactive) | > 100 µM (inactive) | > 100 µM (inactive) | > 10 µM (inactive) | > 100 µM (inactive) | > 100 µM (inactive) | – | > 100 µM (inactive) | –
CCOC(=O)c1nc2cc(C(F)(F)F)ccc2nc1Oc1ccc(OC)cc1 | > 100 µM (inactive) | > 100 µM (inactive) | – | > 100 µM (inactive) | > 100 µM (inactive) | > 100 µM (inactive) | > 100 µM (inactive) | > 100 µM (inactive) | > 100 µM (inactive) | > 100 µM (inactive) | > 100 µM (inactive) | > 100 µM (inactive) | > 100 µM (inactive) | > 100 µM (inactive) | 74.6 µM (inactive) | > 100 µM (inactive) | > 100 µM (inactive) | > 100 µM (inactive) | > 100 µM (inactive) | –
CC(=O)Nc1ccc2[nH]c(C(=O)N3CC(CCl)c4c3cc([N+](=O)[O-])c3ccccc43)cc2c1 (configuration not stated) | 4.98 µM (inactive) | 6.41 µM (inactive) | – | 2.92 µM (inactive) | 5.25 µM (inactive) | > 51.4 µM (inactive) | > 57.4 µM (inactive) | > 100 µM (inactive) | 3.1 µM (inactive) | 1.2 µM (inactive) | 7.33 µM (inactive) | – | > 35.6 µM (inactive) | > 30.2 µM (inactive) | 0.349 µM (active) | 6.32 µM (inactive) | > 100 µM (inactive) | 4.52 µM (inactive) | 2.5 µM (inactive) | 0.791 µM (active)
C=CCN(c1cc(OC)c2[nH]c(C(=O)O)c(C)c2c1[N+](=O)[O-])S(C)(=O)=O | > 100 µM (inactive) | > 100 µM (inactive) | > 100 µM (inactive) | > 100 µM (inactive) | > 100 µM (inactive) | > 100 µM (inactive) | > 100 µM (inactive) | > 100 µM (inactive) | > 100 µM (inactive) | > 100 µM (inactive) | > 100 µM (inactive) | > 100 µM (inactive) | > 100 µM (inactive) | > 100 µM (inactive) | > 100 µM (inactive) | > 100 µM (inactive) | > 100 µM (inactive) | > 100 µM (inactive) | – | > 100 µM (inactive)
C[C@@H]1OC(=O)/C(=C\N(C)C)[C@H]2CC(=O)N(CCc3cn(S(=O)(=O)C(F)(F)F)c4ccccc34)C[C@H]12 | > 100 µM (inactive) | > 100 µM (inactive) | > 100 µM (inactive) | > 100 µM (inactive) | > 100 µM (inactive) | > 100 µM (inactive) | > 100 µM (inactive) | > 100 µM (inactive) | – | > 100 µM (inactive) | > 100 µM (inactive) | > 100 µM (inactive) | > 100 µM (inactive) | > 100 µM (inactive) | – | > 100 µM (inactive) | > 100 µM (inactive) | – | > 100 µM (inactive) | > 100 µM (inactive)
CO/C(=N\N=C(/C)C(F)(F)F)c1ccncc1 | > 100 µM (inactive) | > 100 µM (inactive) | > 100 µM (inactive) | > 100 µM (inactive) | > 100 µM (inactive) | > 100 µM (inactive) | > 100 µM (inactive) | > 100 µM (inactive) | > 100 µM (inactive) | 38.7 µM (inactive) | – | – | > 100 µM (inactive) | > 100 µM (inactive) | > 100 µM (inactive) | – | – | > 100 µM (inactive) | > 100 µM (inactive) | > 100 µM (inactive)
NC(=O)C1CCCN1C(=O)C(Cc1c[nH]cn1)NC(=O)C1CCCC1 (configuration not stated) | > 100 µM (inactive) | > 100 µM (inactive) | > 100 µM (inactive) | > 100 µM (inactive) | > 100 µM (inactive) | > 100 µM (inactive) | > 100 µM (inactive) | > 100 µM (inactive) | > 100 µM (inactive) | > 100 µM (inactive) | > 100 µM (inactive) | – | > 100 µM (inactive) | > 100 µM (inactive) | > 100 µM (inactive) | > 100 µM (inactive) | – | > 100 µM (inactive) | > 100 µM (inactive) | > 100 µM (inactive)
S=C1C(CCCOCc2ccccc2)C2CCCC23CC2(CCN13)OCCS2 (configuration not stated) | > 10 µM (inactive) | – | > 10 µM (inactive) | > 10 µM (inactive) | > 10 µM (inactive) | > 10 µM (inactive) | > 10 µM (inactive) | > 10 µM (inactive) | > 10 µM (inactive) | > 10 µM (inactive) | > 10 µM (inactive) | > 10 µM (inactive) | > 10 µM (inactive) | > 10 µM (inactive) | > 10 µM (inactive) | > 10 µM (inactive) | > 10 µM (inactive) | – | > 10 µM (inactive) | > 10 µM (inactive)
O=P1(c2ccccc2)C2=CCC=CC2C(c2ccccc2)N1Cc1ccccc1 (configuration not stated) | 15.5 µM (inactive) | 15.2 µM (inactive) | 19.6 µM (inactive) | 16.1 µM (inactive) | 11.2 µM (inactive) | 15.9 µM (inactive) | 20.9 µM (inactive) | – | 19.6 µM (inactive) | 13.4 µM (inactive) | 13.5 µM (inactive) | 17.4 µM (inactive) | – | 22.4 µM (inactive) | 24.2 µM (inactive) | 20 µM (inactive) | 20.1 µM (inactive) | 8.63 µM (inactive) | 12.4 µM (inactive) | 17.1 µM (inactive)
CN(C)c1nc2nonc2nc1Nc1ccccc1 | > 100 µM (inactive) | > 100 µM (inactive) | > 100 µM (inactive) | > 100 µM (inactive) | > 100 µM (inactive) | > 100 µM (inactive) | > 100 µM (inactive) | – | > 100 µM (inactive) | > 100 µM (inactive) | > 100 µM (inactive) | – | > 100 µM (inactive) | > 100 µM (inactive) | > 100 µM (inactive) | > 100 µM (inactive) | > 100 µM (inactive) | > 100 µM (inactive) | > 100 µM (inactive) | > 100 µM (inactive)
C=C1C[C@@H]2CC[C@@]34CC5O[C@H]6C(O[C@H]7CC[C@H](CC(=O)O[C@@H]8[C@@H](C)[C@@H]9O[C@@H]%10C[C@]%11(C[C@@H]%12O[C@]%13(C[C@H](C)[C@@H]%14O[C@@H]%15CC(C(O)CO)O[C@@H]%15C[C@@H]%14O%13)C[C@H](C)[C@@H]%12O%11)O[C@@H]%10C[C@@H]9O[C@H]8CC8O[C@@H](CC[C@@H]1O2)C[C@@H](C)C8(O)CO)O[C@@H]7[C@@H]6O3)[C@H]5O4 (some centres not stated) | > 0.65 µM (active) | 0.627 µM (active) | > 1 µM (active) | 0.516 µM (active) | 0.579 µM (active) | > 1 µM (active) | 0.288 µM (active) | 0.594 µM (active) | > 1 µM (active) | 0.995 µM (active) | > 0.796 µM (active) | – | > 0.959 µM (active) | > 1 µM (active) | > 0.625 µM (active) | > 0.45 µM (active) | > 1 µM (active) | 0.481 µM (active) | > 0.615 µM (active) | > 1 µM (active)
